Laboratory results from the supplement of paper PMC10307832.

Legend:
Assay in all cases: relative viability (nuclei count vs DMSO), 5 days (fraction); higher = more cells survive
[1] = compound: CN(C)C(=N)NC(=N)N [Metformin] + COc1cccc2cc(-c3nc([C@H]4CC[C@H](C(=O)O)CC4)n4ncnc(N)c34)[nH]c12 [OSI-027] (partner 0.5 µM)
Method in brief: (§1)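 Each reported value is a median over duplicate plates. It expresses relative viability: treated-well nuclei count divided by vehicle-well nuclei count. Lung cancer cell lines in 1536-well plates were dosed by pin tool a day after seeding, alone with one drug or with a fixed anchor-drug dose plus five library-drug doses (not always all listed) in √10 steps, and nuclei were counted after 5 days.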

[2] = compound: CN(C)C(=N)NC(=N)N [Metformin] + O=C(CCCCCCC(=O)Nc1ccccc1)NO [Vorinostat] (partner 1 µM)
Method in brief: as §1

[3] = compound: N#CC1(c2ccc(NC(=O)c3cccnc3NCc3ccncc3)cc2)CCCC1 [Apatinib] + CC1(C)CCC(c2ccc(Cl)cc2)=C(CN2CCN(c3ccc(C(=O)NS(=O)(=O)c4ccc(N[C@H](CCN5CCOCC5)CSc5ccccc5)c(S(=O)(=O)C(F)(F)F)c4)cc3)CC2)C1 [Navitoclax] (partner 0.5 µM)
Method in brief: as §1

[4] = compound: N#CC1(c2ccc(NC(=O)c3cccnc3NCc3ccncc3)cc2)CCCC1 [Apatinib] + C[C@]1(O)C[C@@H](c2nc(-c3ccc4ccc(-c5ccccc5)nc4c3)c3c(N)nccn32)C1 [Linsitinib] (partner 1 µM)
Method in brief: as §1

Cell Line | relative viability ([1]; first compound 10 µM) | relative viability ([1]; first compound 31.62 µM) | relative viability ([1]; first compound 100 µM) | relative viability ([1]; first compound 316.23 µM) | relative viability ([1]; first compound 1000 µM) | relative viability ([2]; first compound 31.62 µM) | relative viability ([2]; first compound 100 µM) | relative viability ([2]; first compound 316.23 µM) | relative viability ([2]; first compound 1000 µM) | relative viability ([3]; first compound 0.08 µM) | relative viability ([3]; first compound 0.253 µM) | relative viability ([3]; first compound 0.8 µM) | relative viability ([3]; first compound 2.53 µM) | relative viability ([3]; first compound 8 µM) | relative viability ([4]; first compound 0.08 µM) | relative viability ([4]; first compound 0.253 µM) | relative viability ([4]; first compound 0.8 µM) | relative viability ([4]; first compound 2.53 µM) | relative viability ([4]; first compound 8 µM) | relative viability ([2]; first compound 10 µM)
NCI-H2405 | 0.567 | 0.573 | 0.608 | 0.606 | 0.559 | 0.991 | 1.03 | 1.02 | 0.587 | 1.03 | 1.07 | 1.01 | 0.832 | 0.803 | 1.05 | 1.12 | 1.05 | 0.95 | 0.955 | –
NCI-H1734 | 0.653 | 0.581 | 0.537 | 0.544 | 0.618 | 0.907 | 0.81 | 0.78 | 0.914 | 0.852 | 0.81 | 0.861 | 0.708 | 0.685 | 0.969 | 1.04 | 0.897 | 0.738 | 0.809 | 0.753
NCI-H1299 | – | – | – | – | – | – | – | – | – | 1.06 | 1.05 | 1.03 | 1.05 | 0.937 | 0.989 | 0.984 | 0.958 | 0.853 | 0.77 | –
NCI-H1915 | – | 0.666 | 0.651 | 0.56 | 0.665 | 0.499 | 0.498 | 0.46 | 0.517 | 0.838 | 0.819 | 0.778 | 0.783 | 0.732 | 1.15 | 1.02 | 1.08 | 1.06 | 0.921 | –
NCI-H2228 | 0.81 | 0.551 | 0.456 | 0.513 | 0.792 | 0.672 | 0.825 | 0.597 | 0.635 | 1.02 | 0.988 | 0.738 | 0.708 | 0.751 | 0.708 | 0.501 | 0.521 | 0.629 | 0.629 | 0.843
NCI-H650 | 0.517 | 0.549 | 0.535 | 0.584 | 0.607 | 0.413 | 0.405 | 0.556 | 0.533 | – | – | – | – | – | 0.787 | 0.871 | 0.756 | 0.734 | 0.663 | 0.425
NCI-H2009 | 0.754 | 0.821 | 0.752 | 0.692 | 0.601 | 0.706 | 0.857 | 0.83 | 0.75 | 1.22 | 1.23 | 1.12 | 0.913 | 0.826 | 1.26 | 1.16 | 1.17 | 1.08 | 0.799 | 0.715
NCI-H358 | 0.737 | 0.879 | 0.801 | 0.716 | 0.749 | 0.584 | 0.577 | 0.578 | 0.525 | – | – | – | – | – | 0.868 | 0.777 | 0.731 | 0.627 | 0.703 | 0.546
ChaGo-K-1 | 0.595 | 0.599 | 0.6 | 0.543 | 0.597 | 0.777 | 0.751 | 0.667 | 0.723 | – | 1.4 | 0.971 | 0.888 | 0.993 | – | – | – | – | – | 0.663
ABC-1 | 0.661 | 0.529 | 0.466 | 0.266 | 0.22 | 0.953 | 1.1 | 1.08 | 0.332 | – | – | – | – | – | – | 0.861 | 0.869 | 0.839 | 0.882 | –
A549 | – | – | – | – | – | – | – | – | – | 1.18 | 1.34 | 1.22 | 1.19 | 1.02 | 0.534 | 0.647 | 0.686 | 0.649 | 0.563 | –
NCI-H1648 | 0.24 | 0.264 | 0.264 | 0.285 | 0.279 | 0.5 | 1.07 | 0.703 | 0.91 | – | – | – | – | – | – | – | – | – | – | –
NCI-H661 | 0.6 | 0.617 | 0.487 | 0.613 | 0.642 | 0.928 | 0.927 | 0.818 | 0.82 | – | – | – | – | – | 0.526 | 0.578 | 0.648 | 0.596 | 0.52 | 0.851
SW 900 | 0.597 | 0.781 | 0.617 | 0.544 | 0.538 | 0.765 | – | 0.457 | 0.682 | – | – | – | – | – | – | – | – | – | – | 0.548
NCI-H1792 | – | 0.91 | 0.909 | 0.697 | 0.678 | – | – | – | – | 0.572 | 0.596 | 0.569 | 0.559 | 0.592 | 0.719 | 0.51 | 0.502 | 0.491 | 0.641 | –
LCLC-103H | 0.51 | 0.624 | 0.555 | 0.461 | 0.506 | 0.79 | 0.795 | 0.788 | 0.873 | – | – | – | – | – | 1.1 | 1.05 | 1.06 | 1.09 | 0.993 | 0.569
NCI-H1623 | 0.449 | 0.469 | 0.463 | 0.539 | 0.478 | – | – | – | – | – | – | – | – | – | – | – | – | – | – | –
NCI-H2342 | 0.538 | 0.617 | 0.55 | 0.549 | 0.568 | 0.868 | 0.837 | 0.745 | 0.853 | – | – | – | – | – | – | – | – | – | – | –
NCI-H1703 | – | – | – | – | – | – | – | – | – | 0.996 | 0.731 | 0.357 | 0.188 | 0.205 | 0.458 | 0.657 | 0.441 | 0.0986 | 0.132 | –
Calu-6 | – | – | – | – | – | – | – | – | – | 0.791 | 0.919 | 0.751 | 0.648 | 0.626 | 0.948 | 1 | 0.912 | 0.928 | 0.85 | –
EBC-1 | – | – | – | – | – | – | – | – | – | 0.5 | 0.55 | 0.46 | 0.27 | 0.237 | 0.935 | 0.981 | 0.955 | 0.685 | 0.567 | –
IA-LM | – | – | – | – | – | 1.04 | 1.03 | 0.901 | 0.962 | 0.947 | 0.709 | 0.633 | 0.352 | 0.208 | 0.56 | 0.383 | 0.763 | 0.417 | 0.341 | 1.01
NCI-H1563 | 0.742 | 0.797 | 0.778 | 0.722 | 0.866 | – | – | – | – | – | – | – | – | – | 1.28 | 1.22 | 1.13 | 1.12 | 1.03 | –
NCI-H1650 | 0.887 | 0.889 | 0.837 | 0.771 | 0.38 | 0.675 | 0.799 | 0.529 | 0.52 | 1.39 | 1.41 | 1.18 | 1.1 | 1.06 | – | – | – | – | – | 0.492
